Assay results from ChEMBL document CHEMBL1201862, “PubChem BioAssay data set” (2004).
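A five-concentration, 48-hour dose response in 96-well plates underlies each endpoint, interpolated linearly between surrounding concentrations. GI50: concentration for 50% inhibition of growth.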 Calls of active or inactive are those of the source. Rule as the data show it: active = GI50 up to about 1.1 µM and inactive = higher.

Experiments:
Assay in all cases: DTP human tumour cell line panel, 48 h
[1] = test system: A549
[2] = test system: SK-OV-3
[3] = test system: TK-10
[4] = test system: MCF7
[5] = test system: U-251
[6] = test system: SK-MEL-28
[7] = test system: OVCAR-8
[8] = test system: CCRF-CEM
[9] = test system: DU-145
[10] = test system: NCI-H460
[11] = test system: COLO 205
[12] = test system: ACHN
[13] = test system: HCT-15
[14] = test system: SK-MEL-2
[15] = test system: IGROV-1
[16] = test system: HOP-62
[17] = test system: SK-MEL-5
[18] = test system: T47D
[19] = test system: RPMI-8226
[20] = test system: RXF 393

SMILES	GI50 [1]	GI50 [2]	GI50 [3]	GI50 [4]	GI50 [5]	GI50 [6]	GI50 [7]	GI50 [8]	GI50 [9]	GI50 [10]	GI50 [11]	GI50 [12]	GI50 [13]	GI50 [14]	GI50 [15]	GI50 [16]	GI50 [17]	GI50 [18]	GI50 [19]	GI50 [20]
O=C(NC(=S)Nc1ccc(Br)cc1)c1ccc2c(c1)Sc1ccccc1S2	21 µM (inactive)	16.7 µM (inactive)	16.9 µM (inactive)	32.7 µM (inactive)	19 µM (inactive)	78.7 µM (inactive)	17.3 µM (inactive)	16.5 µM (inactive)	17.3 µM (inactive)	17.9 µM (inactive)	41.8 µM (inactive)	18.2 µM (inactive)	38 µM	24.5 µM (inactive)	16.1 µM (inactive)	16.1 µM (inactive)	51.1 µM (inactive)	16.9 µM (inactive)	–	–
O=C(/N=N/c1ccccc1Cl)NNc1ccccc1Cl	55.5 µM (inactive)	–	50.9 µM (inactive)	–	41.6 µM (inactive)	69.7 µM (inactive)	27.6 µM (inactive)	22.2 µM (inactive)	43.2 µM (inactive)	65 µM (inactive)	–	28.1 µM (inactive)	60.7 µM	32 µM (inactive)	20.4 µM (inactive)	9.48 µM (inactive)	85.3 µM (inactive)	30.5 µM (inactive)	24.7 µM (inactive)	–
COC(C/C(=C/CO[Si](C(C)C)(C(C)C)C(C)C)C(=O)Nc1ccccc1I)OC	22.9 µM (inactive)	28.2 µM (inactive)	63.8 µM (inactive)	–	28 µM (inactive)	59.4 µM (inactive)	33 µM (inactive)	9.68 µM (inactive)	13 µM (inactive)	25.5 µM (inactive)	9.75 µM (inactive)	37.8 µM (inactive)	19.1 µM	15.2 µM (inactive)	2.99 µM (inactive)	38.2 µM (inactive)	26.5 µM (inactive)	30.4 µM (inactive)	6.15 µM (inactive)	2.39 µM (inactive)
CCOP(=O)(OCC)C(F)(F)c1ccc(CC(NC(=O)OC(C)(C)C)C(=O)O)cc1 (stereo not drawn)	> 10 µM (inactive)	> 10 µM (inactive)	> 10 µM (inactive)	> 10 µM (inactive)	> 10 µM (inactive)	> 10 µM (inactive)	> 10 µM (inactive)	> 10 µM (inactive)	> 10 µM (inactive)	> 10 µM (inactive)	> 10 µM (inactive)	> 10 µM (inactive)	> 10 µM	–	> 10 µM (inactive)	5.15 µM (inactive)	> 10 µM (inactive)	> 10 µM (inactive)	–	–
CCCCCCc1ccc(CCCCCCCC(=O)O)o1	50 µM (inactive)	> 100 µM (inactive)	–	44.8 µM (inactive)	–	> 100 µM (inactive)	> 100 µM (inactive)	48.5 µM (inactive)	> 100 µM (inactive)	> 100 µM (inactive)	> 100 µM (inactive)	62.4 µM (inactive)	61.5 µM	> 100 µM (inactive)	> 100 µM (inactive)	> 100 µM (inactive)	> 100 µM (inactive)	> 100 µM (inactive)	39.6 µM (inactive)	–
C=CC1(C)CCC2C(=CCC3C2(C)CC(O)C(O)C3(C)COC2OC(CO)C(O)C(O)C2O)C1 (stereo not drawn)	> 100 µM (inactive)	> 100 µM (inactive)	> 100 µM (inactive)	> 100 µM (inactive)	> 100 µM (inactive)	> 100 µM (inactive)	> 100 µM (inactive)	46.1 µM (inactive)	> 100 µM (inactive)	87.9 µM (inactive)	> 100 µM (inactive)	> 100 µM (inactive)	> 100 µM	> 100 µM (inactive)	> 100 µM (inactive)	–	> 100 µM (inactive)	> 100 µM (inactive)	–	–
Cc1ccc(S(=O)(=O)N(CC(O)COc2ccccc2)c2ccc(F)cc2F)cc1 (stereo not drawn)	12.9 µM (inactive)	18.7 µM (inactive)	21.5 µM (inactive)	–	14.4 µM (inactive)	15.8 µM (inactive)	17.3 µM (inactive)	18.9 µM (inactive)	16.6 µM (inactive)	15.8 µM (inactive)	15.3 µM (inactive)	16.5 µM (inactive)	17.1 µM	15.5 µM (inactive)	–	15.5 µM (inactive)	14.7 µM (inactive)	17.2 µM (inactive)	13.5 µM (inactive)	11.9 µM (inactive)
Cc1[nH]c2[nH]c(=S)nc(NC(N)=S)c2c1Cc1ccccc1	75.5 µM (inactive)	76 µM (inactive)	62.8 µM (inactive)	38.1 µM (inactive)	43.9 µM (inactive)	21.9 µM (inactive)	51.9 µM (inactive)	21.9 µM (inactive)	49.5 µM (inactive)	48.6 µM (inactive)	15.1 µM (inactive)	> 100 µM (inactive)	58.6 µM	93.1 µM (inactive)	59 µM (inactive)	47 µM (inactive)	13.4 µM (inactive)	21.8 µM (inactive)	12.7 µM (inactive)	–
O=C1Nc2ccccc2/C1=N/N=C1NCCCCN1	> 100 µM (inactive)	> 100 µM (inactive)	> 100 µM (inactive)	> 100 µM (inactive)	> 100 µM (inactive)	–	> 100 µM (inactive)	> 100 µM (inactive)	> 100 µM (inactive)	> 100 µM (inactive)	> 100 µM (inactive)	> 100 µM (inactive)	> 100 µM	> 100 µM (inactive)	> 100 µM (inactive)	> 100 µM (inactive)	> 100 µM (inactive)	57.8 µM (inactive)	> 100 µM (inactive)	–
CCSC1=N/C(=C\c2ccco2)C(NN)=N1	> 50 µM (inactive)	> 50 µM (inactive)	> 50 µM (inactive)	–	> 50 µM (inactive)	> 50 µM (inactive)	> 50 µM (inactive)	> 50 µM (inactive)	> 50 µM (inactive)	> 50 µM (inactive)	> 50 µM (inactive)	> 50 µM (inactive)	> 50 µM	> 50 µM (inactive)	> 50 µM (inactive)	> 50 µM (inactive)	> 50 µM (inactive)	> 50 µM (inactive)	> 50 µM (inactive)	> 50 µM (inactive)
CN(C)/C=[N+]1/[C@@H](Cc2ccccc2)C(=O)O[B-]1(F)c1ccccc1 (stereo partly drawn)	> 100 µM (inactive)	> 100 µM (inactive)	> 100 µM (inactive)	> 100 µM (inactive)	> 100 µM (inactive)	> 100 µM (inactive)	> 100 µM (inactive)	> 100 µM (inactive)	> 100 µM (inactive)	> 100 µM (inactive)	> 100 µM (inactive)	> 100 µM (inactive)	> 100 µM	–	> 100 µM (inactive)	> 100 µM (inactive)	> 100 µM (inactive)	> 100 µM (inactive)	> 100 µM (inactive)	–
C=C1C(=O)[C@@]23CC[C@@H]4[C@@]5(C)CCC[C@@]4(OC5=O)C2(C)CC[C@]1(OC)C3 (stereo partly drawn)	3.27 µM (inactive)	–	1.38 µM (inactive)	0.255 µM (active)	–	1.65 µM (inactive)	0.611 µM (active)	0.0605 µM (active)	4.41 µM (inactive)	1.93 µM (inactive)	2.38 µM (inactive)	1.77 µM (inactive)	0.581 µM	1.06 µM (active)	1.97 µM (inactive)	1.17 µM (inactive)	1.59 µM (inactive)	1.39 µM (inactive)	0.205 µM (active)	–
